Assay results: PMC3734177, “Design, Synthesis, Evaluation and Thermodynamics of 1-Substituted Pyridylimidazo[1,5-a]Pyridine Derivatives as Cysteine Protease Inhibitors” (PLoS ONE, 2013)
Converted amounts (≈) assume the structure as drawn. “And” between values parts separate entries of the source, which are not always exact repeats. Equal entries are not always repeated. Where two headings read alike, the source gives them in different places.

What was measured:
papain [1] = target: T1, papain (Carica papaya, UniProt P00784); test: Cysteine protease inhibitory activity, papain with Bz-DL-Arg-pNA substrate; assay type: biochemical
T1 construct: To solutions of active papain (final concentration: 0.05 mM); purchased Sigma Chemical Co., St. Louis, MO, USA
T1 sequence (P00784 134-345): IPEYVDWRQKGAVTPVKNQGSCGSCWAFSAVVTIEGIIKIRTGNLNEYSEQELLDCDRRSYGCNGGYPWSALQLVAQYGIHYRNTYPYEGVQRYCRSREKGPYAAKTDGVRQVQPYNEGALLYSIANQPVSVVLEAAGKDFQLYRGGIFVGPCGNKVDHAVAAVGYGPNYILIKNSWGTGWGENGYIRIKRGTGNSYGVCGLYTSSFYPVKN
Procedure: The capacity of the 1-pyridylimidazo[1,5-a]pyridine derivatives to inhibit cysteine proteases was tested using papain as the model enzyme. The proteolytic activity of the reaction mixtures was determined using Bz-DL-Arg-pNA as the chromogenic substrate. To solutions of active papain (final concentration: 0.05 mM) were added concentrated solutions of the different derivatives to final concentrations of 0.2 mM. […] The same procedure was used at 32°C and 42°C for thermodynamics studies. The kinetic parameters for the substrate hydrolysis were determined by measuring the initial rate of enzymatic activity. The inhibition constant Ki was determined by Dixon method and also by the Lineweaver–Burk equation. The Km value was calculated from the double-reciprocal equation by fitting the data into the computer software Origin 6.1. The Lineweaver–Burk plot was used to determine the types of inhibition. For the kinetic analysis and rate constant determinations, the assays were carried out in triplicate, and the average value was considered throughout this work.

[2] = tested on: Bacillus spp. (ATCC-14593); test: MIC, micro dilution method; assay type: cell-based; conditions: ATCC14593; Bacillus sp.
[3] = tested on: Group D Streptococci (ATCC-12959); test: MIC, micro dilution method; assay type: cell-based
Procedure: (§1) The disk diffusion method was used for the preliminary antibacterial evaluation of 1-pyridylimidazo[1,5-a]pyridine derivatives. The MIC50 of these derivatives, showing inhibition in the preliminary tests, were further determined by the microtitre plate technique using micro dilution method. In brief, the bacterial strains (S. aureus, P. vulgaris, Group D Streptococci, Bacillus sp., E. coli, P. aeruginosa and S. morganii)) were grown and diluted to 2×10^5 colony-forming units (CFU)/ml in sodium phosphate buffer (SPB) containing 0.03% Luria–Bertani (LB) broth. The synthesized derivatives were dissolved in DMSO and their serial dilution was performed in 50 µL of LB medium in 96-well microtitre plate to achieve the required concentrations (0.1–10 µg/ml) with bacterial inoculums (5×10^4 CFU per well). DMSO was taken as negative control and Ceftriaxone and clotrimazole were taken as positive control. After incubation at 37°C overnight, the MICs were taken as the lowest inhibitor concentration at which the bacterial growth was inhibited. The average of three values was calculated and that was the MIC for the test material and bacterial strain.
(§2) For the agar plate count method, 25 µL aliquots of bacteria at 1×10^5 CFU/ml in SPB containing 0.03% LB broth were incubated with 25 µL of diluted compounds for 2 h at 37°C. The mixtures of bacteria and compounds were serially diluted 10-fold with SPB and plated on LB plates that were incubated at 37°C overnight. Bacterial colonies were enumerated the following day.

[4] = tested on: Serratia morganii (ATCC- 31665); test: MIC, micro dilution method; assay type: cell-based; conditions: ATCC31665
Procedure: as §1, §2

[5] = tested on: Proteus vulgaris (ATCC-29905); test: MBC, sub cultivation from MIC plate; assay type: cell-based; conditions: ATCC29905, P. vulgaris
Procedure: (§3) After having determined the MICs, bacterial strains from the wells of the microtitre plate with no visible bacterial growth were removed for serial sub cultivation of 2 µl into another new microtitre plate containing 100 µl of broth per well and further incubated for 24 h. The lowest concentration with no visible growth was defined as MBC [28], indicating 99.5% killing of the original inoculum. The absorbance of each well was measured at a wavelength of 620 nm by Microplate Manager 4.0 (Bio-Rad laboratories) and compared with a blank. Solvent (DMSO) was used as a negative control. Three replicates were done for each compound and experiment was repeated two times.

[6] = tested on: Staphylococcus aureus (ATCC-25923); test: MBC, sub cultivation from MIC plate; assay type: cell-based; conditions: ATCC25923, S. aureus
Procedure: as §3

[7] = tested on: Bacillus spp. (ATCC-14593); test: MBC, sub cultivation from MIC plate; assay type: cell-based; conditions: ATCC14593, Bacillus sp.
Procedure: as §3

[8] = tested on: Escherichia coli (ATCC-25922); test: MBC, sub cultivation from MIC plate; assay type: cell-based; conditions: ATCC25922, E. coli
Procedure: as §3

[9] = tested on: Group D Streptococci (ATCC-12959); test: MBC, sub cultivation from MIC plate; assay type: cell-based
Procedure: as §3

[10] = tested on: Pseudomonas aeruginosa (ATCC-27853); test: MBC, sub cultivation from MIC plate; assay type: cell-based
Procedure: as §3

[11] = tested on: Serratia morganii (ATCC- 31665); test: MBC, sub cultivation from MIC plate; assay type: cell-based
Procedure: as §3

[12] = tested on: Proteus vulgaris (ATCC-29905); test: MIC, micro dilution method; assay type: cell-based; conditions: ATCC29905, P. vulgaris
Procedure: as §1, with “strain. […]” for “strain.”

[13] = tested on: Staphylococcus aureus (ATCC-25923); test: MIC, micro dilution method; assay type: cell-based; conditions: ATCC25923, S. aureus
Procedure: as §1, with “strain. […]” for “strain.”

[14] = tested on: Bacillus spp. (ATCC-14593); test: MIC, micro dilution method; assay type: cell-based; conditions: ATCC14593; Bacillus sp.; remark: listed apart in the source
Procedure: as §1, with “strain. […]” for “strain.”

[15] = tested on: Escherichia coli (ATCC-25922); test: MIC, micro dilution method; assay type: cell-based; conditions: ATCC25922, E. coli
Procedure: as §1, with “strain. […]” for “strain.”

[16] = tested on: Pseudomonas aeruginosa (ATCC-27853); test: MIC, micro dilution method; assay type: cell-based; conditions: ATCC27853
Procedure: as §1, with “strain. […]” for “strain.”

papain [17] = target: T1, papain; test: Thermodynamics analysis of papain inhibition (Van't Hoff); assay type: biochemical; conditions: Value at 37°C
Procedure: Free energy changes of inhibition of papain against 1- substituted pyridylimidazo[1,5-a] pyridine derivatives (ΔG) were determined by the equation, [drawing 1] (1)
Temperature dependence of the inhibition constants was used to determine the thermodynamic parameters. Changes in enthalpy (ΔH) were determined from the Van’t Hoff plots by using the equation, [drawing 2] (2)
Where ΔH is enthalpy change, R is gas constant, ΔS is entropy change and T is the absolute temperature. The entropy change was obtained from the equation, [drawing 3] (3)

CC(C)(C)c1cc(-c2nc(-c3ccccn3)c3ccccn23)cc(C(C)(C)C)c1O [Compound 3d, 1-(2-pyridyl)-3-(3,5-di-tert-butyl-4-hydroxyphenyl) imidazo[1,5-a]pyridine]
Ki (papain [1]; 32°C): 110 µM | Ki (papain [1]; 37°C): 99.3 µM | Ki (papain [1]; 42°C): 89.2 µM | Type of inhibition (papain [1]; Lineweaver–Burk plot): Non -Competitive | IC50 (papain [1]; papain): 96.5 µM | MIC90 [2]: 2.6 µg/mL (≈ 6.51 µM) | MIC50 [3]: 1 µg/mL (≈ 2.5 µM) | MIC90 [3]: 1.9 µg/mL (≈ 4.76 µM) | MIC50 [4]: 1.1 µg/mL (≈ 2.75 µM) | MIC90 [4]: 2.1 µg/mL (≈ 5.26 µM) | MBC ([5]; read-out: MBC50): 1.7 µg/mL (≈ 4.25 µM) | MBC ([5]; read-out: MBC90): 3.4 µg/mL (≈ 8.51 µM) | MBC ([6]; read-out: MBC50): 2.6 µg/mL (≈ 6.51 µM) | MBC ([6]; read-out: MBC90): 5.2 µg/mL (≈ 13 µM) | MBC ([7]; read-out: MBC50): 2.5 µg/mL (≈ 6.26 µM) | MBC ([7]; read-out: MBC90): 4.7 µg/mL (≈ 11.8 µM) | MBC ([8]; read-out: MBC50): 2.5 µg/mL (≈ 6.26 µM) | MBC ([8]; read-out: MBC90): 4.9 µg/mL (≈ 12.3 µM) | MBC ([9]; read-out: MBC50): 2.3 µg/mL (≈ 5.76 µM) | MBC ([9]; read-out: MBC90): 4.4 µg/mL (≈ 11 µM) | MBC ([10]; ATCC27853, read-out: MBC50): 2.4 µg/mL (≈ 6.01 µM) | MBC ([10]; ATCC27853, read-out: MBC90): 4.4 µg/mL (≈ 11 µM) | MBC ([11]; ATCC31665, read-out: MBC50): 2.4 µg/mL (≈ 6.01 µM) | MBC ([11]; ATCC31665, read-out: MBC90): 4.4 µg/mL (≈ 11 µM) | MIC50 [12]: 0.9 µg/mL (≈ 2.25 µM) | MIC90 [12]: 1.7 µg/mL (≈ 4.25 µM) | MIC50 [13]: 1.2 µg/mL (≈ 3 µM) | MIC90 [13]: 2.3 µg/mL (≈ 5.76 µM) | MIC50 [14]: 1.4 µg/mL (≈ 3.5 µM) | MIC50 [15]: 1.2 µg/mL (≈ 3 µM) | MIC90 [15]: 2.3 µg/mL (≈ 5.76 µM) | MIC50 [16]: 1.2 µg/mL (≈ 3 µM) | MIC90 [16]: 2 µg/mL (≈ 5.01 µM) | ΔG (free energy of binding) (papain [17]): −5.64 Kcalmol^−1 and −5.64(±0.24) Kcalmol^−1 | ΔS (entropy change) (papain [17]): 59.73(±1.93) Jmol-K^−1 | ΔH (enthalpy change) (papain [17]; Van't Hoff plot): −5.2 (±0.84) KJmol^−1
